Values joined by “and” are separate entries in the source; they are usually repeats but may differ in a detail not shown here. Equal entries are not always repeated. Where two headings read alike, the source gives them in different places.
Tests used:
[1] = system: Mythimna separate (Walker); assay: Insecticidal activity against Mythimna separate (Walker); type: in vivo; conditions: Mythimna, 100 μg/mL; read-out: insecticidal activity, Mythimna separate (Walker)
[2] = system: Helicoverpa armigera (Hübner); assay: Insecticidal activity against Helicoverpa armigera (Hübner); type: in vivo; conditions: Helicoverpa armigera; 100 μg/mL; read-out: insecticidal activity, Helicoverpa armigera (Hübner)
[3] = system: Ostrinia furnacalis; assay: Insecticidal activity against Ostrinia furnacalis; type: in vivo; conditions: Ostrinia furnacalis; 100 μg/mL; read-out: insecticidal activity, Ostrinia furnacalis
[4] = system: Caenorhabditis elegans; assay: Insecticidal activity against Caenorhabditis elegans; type: in vivo; conditions: Caenorhabditis elegans, 100 μg/mL; read-out: insecticidal activity, Caenorhabditis elegans
[5] = system: Alternaria solani; assay: Fungicidal activity, fungicide growth rate method, AS; type: cell-based; conditions: Alternaria solani, 50 μg/mL; read-out: fungicidal activity (growth inhibition rate), AS
[6] = system: Botrytis cinerea; assay: Fungicidal activity, fungicide growth rate method, BC; type: cell-based; conditions: Botrytis cinerea, 50 μg/mL; read-out: fungicidal activity (growth inhibition rate), BC
[7] = system: Cercospora arachidicola; assay: Fungicidal activity, fungicide growth rate method, CA; type: cell-based; conditions: Mycosphaerella arachidis, 50 μg/mL; read-out: fungicidal activity (growth inhibition rate), CA
[8] = system: wheat Gibberella zeae; assay: microbe, parasite or virus in culture; type: cell-based; conditions: Fusarium graminearum, read-out: fungicidal activity (growth inhibition rate), GZ, 50 μg/mL
[9] = system: Phytophthora infestans (Mont.) de Bary; assay: microbe, parasite or virus in culture; type: cell-based; conditions: Phytophthora infestans, read-out: fungicidal activity (growth inhibition rate), PI, 50 μg/mL
[10] = system: Physalospora piricola; assay: Fungicidal activity, fungicide growth rate method, PP; type: cell-based; conditions: 50 μg/mL; read-out: fungicidal activity (growth inhibition rate), PP
[11] = system: Pellicularia sasakii; assay: Fungicidal activity, fungicide growth rate method, PS; type: cell-based; conditions: 50 μg/mL; read-out: fungicidal activity (growth inhibition rate), PS
[12] = system: Rhizoctonia cerealis; assay: Fungicidal activity, fungicide growth rate method, RC; type: cell-based; conditions: Ceratobasidium cereale, 50 μg/mL; read-out: fungicidal activity (growth inhibition rate), RC
[13] = system: Sclerotinia sclerotiorum; assay: Fungicidal activity, fungicide growth rate method, SS; type: cell-based; conditions: Sclerotinia sclerotiorum, 50 μg/mL
[14] = system: Tobacco Mosaic Virus; assay: Anti-TMV inactivation activity on tobacco plants; type: in vivo; design: concentration or dose not given beside the values; conditions: compound mixed with TMV solution 30 minutes, lesions checked three days later
[15] = system: Apis mellifera ligustica Spin; conditions: for Death number after 24 h / Death number after 48 h: per replicate of 10 bees

SMILES	pest or weed control at 100 µg/mL [1] [%]	pest or weed control at 100 µg/mL [2] [%]	pest or weed control at 100 µg/mL [3] [%]	pest or weed control at 100 µg/mL [4] [%]	inhibition at 50 µg/mL [5] [%]	inhibition at 50 µg/mL [6] [%]	inhibition at 50 µg/mL [7] [%]	inhibition at 50 µg/mL [8] [%]	inhibition at 50 µg/mL [9] [%]	inhibition at 50 µg/mL [10] [%]	inhibition at 50 µg/mL [11] [%]	inhibition at 50 µg/mL [12] [%]	inhibition at 50 µg/mL [13] [%]	TMV inactivation (anti-TMV activity) [14] [%]	melting point [°C]	further results
C=CC[C@@H]1C[C@]2(OC(C)=O)C[C@H](OC(C)=O)O[C@@]23CC=CC[C@H]13 [Zyj07-37-2]	20	15	0	13	22	18	27	3	21	31	18	21	> 50	28		
C=CC[C@@H]1C[C@]2(OC(C)=O)C[C@H](OC(C)=O)O[C@@]23C[C@H]2O[C@H]2C[C@H]13 [Zyj07-65-2]	> 30	10	5	17	0	41	24	0	25	12	0	7	24	29		Death rate after 48 h (%) ([15]; dosage 9.57 μg a.i./bee): 5.0%; Death number after 24 h ([15]; dosage 9.57 μg a.i./bee): 0; Death number after 48 h ([15]; dosage 9.57 μg a.i./bee): 0 and 1; Death rate after 48 h (%) ([15]; dosage 10.9 μg a.i./bee): 0%; Death number after 24 h ([15]; dosage 10.9 μg a.i./bee): 0; Death number after 48 h ([15]; dosage 10.9 μg a.i./bee): 0
C=CC[C@@H]1C[C@@]2(OC(C)=O)C[C@@H](CC=C)[C@H]3C[C@@H]4O[C@@H]4C[C@@]32O1 [Zyj07-67-2]	0	0	0	20	0	> 50	24	0	25	13	36	29	> 50	29	100 to 102	
C=CC[C@@H]1C[C@]2(O)CCO[C@@]23C[C@@H](Cl)[C@H](O)C[C@H]13 [Zyj07-100]	10	0	0		14	14	46	13	38	29	23	0			134 to 136	
C=CC[C@@H]1C[C@]2(O)CCO[C@@]23C[C@@H](O)[C@H](Cl)C[C@H]13 [Zyj07-101]	> 30	20	15		5	> 50	14	3	> 60	> 50	0	29			143 to 144	
O=C1C[C@@]2(O)CC[C@H]3C[C@@H]4O[C@@H]4C[C@@]32O1 [Zyj07-102]	0	0	0		0	41	14	27	23	42	0	0	0	14	119 to 120	

Reference: patent publication US11716992B2, “5A5B6C tricyclic spirolactone derivative, preparation method therefor and use thereof” (NANKAI UNIVERSITY, priority 2017, dated 2023)
